Several values for one entry are separate records, joined by “and”; a condition that tells them apart may be missing. Equal values may be shown once. Inconclusive results are not listed. Numbered stars: 1 amine (or outer) side, 2 acyl side, 3 side chain; on linkers, the order of the positions; unused ones are H or OH. Bridge positions count the residues as written; N and C are the ends. Square brackets hold non-standard residues; d marks the D form. Peptide text beside a SMILES is read from it. I, II: the chains in the order shown. Actinocin(9to1) = Cc1c2oc3c(C)ccc(C(=O)[*:1])c3nc-2c(C(=O)[*:2])c(N)c1=O; aThr = C[C@H](O)[C@H](N)C(=O)O; NMeV = CN[C@H](C(=O)O)C(C)C; Sar = CNCC(=O)O
Tested on: mice, ADJ-PC-20 plasma cell tumor sc, T/C %
Experiment: NCI In Vivo Anticancer Drug Screen. Data for tumor model ADJ-PC-20 Plasma Cell (subcutaneous) in unknown mice
Settings: endpoint: mean tumor weight, higher = larger tumour
Procedure: The antitumor activity of compounds was measured in mice bearing transplantable tumors. Survival or tumor size were measured and the results are expressed as the measurement made in the treated group (T) divided by the measurement made in the vehicle treated control group (C). The tumor model used in this assay is ADJ-PC-20 Plasma Cell (subcutaneous) in unknown mice

[1] = dose: 0.5 mg/kg/injection, schedule: Q01DX010 (ip), vehicle: carboxymethylcellulose (CMC)
[2] = dose: 125.0 mg/kg/injection, schedule: Q01DX010 (ip), vehicle: carboxymethylcellulose (CMC)
[3] = dose: 250.0 mg/kg/injection, schedule: Q01DX010 (ip), vehicle: carboxymethylcellulose (CMC)
[4] = dose: 100.0 mg/kg/injection, schedule: Q01DX010 (ip), vehicle: other

Compound: COc1cc2c(c(OC)c1OC)-c1ccc(OC)c(=O)cc1[C@@H](NC(C)=O)CC2
- T/C (dose: 8.0 micrograms/kg/injection, schedule: Q01DX010 (ip), vehicle: saline): 99 % of control
- T/C (dose: 16.0 micrograms/kg/injection, schedule: Q01DX010 (ip), vehicle: saline): 114 % of control
- T/C (dose: 31.0 micrograms/kg/injection, schedule: Q01DX010 (ip), vehicle: saline): 105 % of control

Compound: OCC1OC(n2cnc3c(=S)nc[nH]c32)C(O)C1O (stereo not drawn)
- T/C [1]: 87 % of control
- T/C (dose: 1.0 mg/kg/injection, schedule: Q01DX010 (ip), vehicle: carboxymethylcellulose (CMC)): 51 % of control
- T/C (dose: 2.0 mg/kg/injection, schedule: Q01DX010 (ip), vehicle: carboxymethylcellulose (CMC)): 25 % of control
- T/C (dose: 4.0 mg/kg/injection, schedule: Q01DX010 (ip), vehicle: carboxymethylcellulose (CMC)): 2 % of control
- T/C (dose: 8.0 mg/kg/injection, schedule: Q01DX010 (ip), vehicle: carboxymethylcellulose (CMC)): 22 % of control

Compound: N#[N+]c1cnc([O-])[nH]c1=O
- T/C (dose: 5.0 mg/kg/injection, schedule: Q01DX010 (ip), vehicle: carboxymethylcellulose (CMC)): 99 % of control
- T/C (dose: 10.0 mg/kg/injection, schedule: Q01DX010 (ip), vehicle: carboxymethylcellulose (CMC)): 90 % of control

Compound: O=c1[nH]c(=O)n(C2CC(O)C(CO)O2)cc1I (stereo not drawn)
- T/C (dose: 31.25 mg/kg/injection, schedule: Q01DX010 (ip), vehicle: carboxymethylcellulose (CMC)): 49 % of control
- T/C (dose: 62.5 mg/kg/injection, schedule: Q01DX010 (ip), vehicle: carboxymethylcellulose (CMC)): 77 % of control
- T/C [2]: 32 % of control
- T/C [3]: 11 % of control

Compound: Cc1n[nH]c(=O)[nH]c1=O
- T/C [4]: 80 % of control
- T/C (dose: 200.0 mg/kg/injection, schedule: Q01DX010 (ip), vehicle: other): 85 % of control

Compound: NC(Cc1ccc(N(CCCl)CCCl)cc1)C(=O)O (stereo not drawn)
- T/C (dose: 0.08 mg/kg/injection, schedule: Q01DX010 (ip), vehicle: carboxymethylcellulose (CMC)): 99 % of control
- T/C (dose: 0.16 mg/kg/injection, schedule: Q01DX010 (ip), vehicle: carboxymethylcellulose (CMC)): 107 % of control
- T/C (dose: 0.63 mg/kg/injection, schedule: Q01DX010 (ip), vehicle: carboxymethylcellulose (CMC)): 79 % of control
- T/C (dose: 1.25 mg/kg/injection, schedule: Q01DX010 (ip), vehicle: carboxymethylcellulose (CMC)): 9 % of control

Compound: Cc1c2oc3c(C)ccc(C(=O)N[C@@H]4C(=O)N[C@H](C(C)C)C(=O)N5CCC[C@H]5C(=O)N(C)CC(=O)N(C)[C@@H](C(C)C)C(=O)O[C@H]4C)c3nc-2c(C(=O)N[C@@H]2C(=O)N[C@H](C(C)C)C(=O)N3CCC[C@H]3C(=O)N(C)CC(=O)N(C)[C@@H](C(C)C)C(=O)O[C@H]2C)c(N)c1=O (I: [aThr][dV]P[Sar][NMeV] / II: [aThr][dV]P[Sar][NMeV]; ester I:1-I:C, II:1-II:C; linker I:N-II:N via Actinocin(9to1))
- T/C (dose: 4.7 micrograms/kg/injection, schedule: Q01DX010 (ip), vehicle: saline): 161 % of control
- T/C (dose: 6.2 micrograms/kg/injection, schedule: Q01DX010 (ip), vehicle: saline): 193 % of control
- T/C (dose: 9.4 micrograms/kg/injection, schedule: Q01DX010 (ip), vehicle: saline): 87 % of control
- T/C (dose: 12.5 micrograms/kg/injection, schedule: Q01DX010 (ip), vehicle: saline): 93 % of control

Compound: O=c1[nH]cc(F)c(=O)[nH]1
- T/C (dose: 1.56 mg/kg/injection, schedule: Q01DX010 (ip), vehicle: saline): 173 % of control
- T/C (dose: 6.25 mg/kg/injection, schedule: Q01DX010 (ip), vehicle: saline): 35 % of control
- T/C (dose: 12.5 mg/kg/injection, schedule: Q01DX010 (ip), vehicle: saline): 20 % of control

Compound: Nc1nc(=S)c2[nH]cnc2[nH]1
- T/C (dose: 0.12 mg/kg/injection, schedule: Q01DX010 (ip), vehicle: carboxymethylcellulose (CMC)): 112 % of control
- T/C (dose: 0.25 mg/kg/injection, schedule: Q01DX010 (ip), vehicle: carboxymethylcellulose (CMC)): 39 % of control and 62 % of control
- T/C [1]: 9 % of control
- T/C (dose: 62.0 micrograms/kg/injection, schedule: Q01DX010 (ip), vehicle: carboxymethylcellulose (CMC)): 52 % of control
- T/C (dose: 125.0 micrograms/kg/injection, schedule: Q01DX010 (ip), vehicle: carboxymethylcellulose (CMC)): 23 % of control
- T/C (dose: 250.0 micrograms/kg/injection, schedule: Q01DX010 (ip), vehicle: carboxymethylcellulose (CMC)): 14 % of control

Compound: COS(C)(=O)=O
- T/C (dose: 25.0 mg/kg/injection, schedule: Q01DX010 (ip), vehicle: water): 110 % of control
- T/C (dose: 50.0 mg/kg/injection, schedule: Q01DX010 (ip), vehicle: water): 82 % of control
- T/C (dose: 100.0 mg/kg/injection, schedule: Q01DX010 (ip), vehicle: water): 42 % of control

Compound: CS(=O)(=O)OCCCl
- T/C (dose: 12.5 mg/kg/injection, schedule: Q01DX010 (ip), vehicle: carboxymethylcellulose (CMC)): 120 % of control
- T/C (dose: 25.0 mg/kg/injection, schedule: Q01DX010 (ip), vehicle: carboxymethylcellulose (CMC)): 114 % of control
- T/C (dose: 50.0 mg/kg/injection, schedule: Q01DX010 (ip), vehicle: carboxymethylcellulose (CMC)): 76 % of control
- T/C (dose: 100.0 mg/kg/injection, schedule: Q01DX010 (ip), vehicle: carboxymethylcellulose (CMC)): 124 % of control

Compound: C[C@]12CCC(=O)C[C@H]1CC[C@@H]1[C@@H]2CC[C@@]2(C)[C@H]1CC[C@]2(C)O
- T/C (dose: 500.0 mg/kg/injection, schedule: Q01DX010 (sc), vehicle: steriod suspending solution): 105 % of control and 119 % of control
- T/C (dose: 1000.0 mg/kg/injection, schedule: Q01DX010 (sc), vehicle: steriod suspending solution): 96 % of control

Compound: O=C(Nc1ccc(NC2=NCCN2)cc1)c1ccc(C(=O)Nc2ccc(NC3=NCCN3)cc2)cc1
- T/C (dose: 4.0 mg/kg/injection, schedule: Q01DX010 (ip), vehicle: saline): 98 % of control
- T/C (dose: 8.0 mg/kg/injection, schedule: Q01DX010 (ip), vehicle: saline): 69 % of control

Compound: OCC1OC(n2cnc3c(Cl)ncnc32)C(O)C1O (stereo not drawn)
- T/C [2]: 100 % of control
- T/C [3]: 107 % of control
- T/C (dose: 500.0 mg/kg/injection, schedule: Q01DX010 (ip), vehicle: carboxymethylcellulose (CMC)): 93 % of control
- T/C (dose: 1000.0 mg/kg/injection, schedule: Q01DX010 (ip), vehicle: carboxymethylcellulose (CMC)): 35 % of control

Compound: Nc1nc2n[nH]nc2c(=O)[nH]1
- T/C (dose: 12.5 mg/kg/injection, schedule: Q01DX010 (ip), vehicle: other): 113 % of control
- T/C (dose: 75.0 mg/kg/injection, schedule: Q01DX010 (ip), vehicle: other): 58 % of control
- T/C [4]: 83 % of control

Compound: N=C(N)c1ccc(Nc2ccc(C(=N)N)cc2)cc1
- T/C (dose: 6.25 mg/kg/injection, schedule: Q01DX010 (ip), vehicle: methylcellulose (MC)): 116 % of control
- T/C (dose: 12.5 mg/kg/injection, schedule: Q01DX010 (ip), vehicle: methylcellulose (MC)): 105 % of control
